For experiment [1], the target named is T1, RET(KD: 658-1114 G810R) (Homo sapiens, UniProt P07949, G810R).
T1 construct: 658-1114; expressed in transfected cells; host or cells: 293T.165 (293T cells, generated in-house)
T1 sequence (P07949 658-1114 G810R): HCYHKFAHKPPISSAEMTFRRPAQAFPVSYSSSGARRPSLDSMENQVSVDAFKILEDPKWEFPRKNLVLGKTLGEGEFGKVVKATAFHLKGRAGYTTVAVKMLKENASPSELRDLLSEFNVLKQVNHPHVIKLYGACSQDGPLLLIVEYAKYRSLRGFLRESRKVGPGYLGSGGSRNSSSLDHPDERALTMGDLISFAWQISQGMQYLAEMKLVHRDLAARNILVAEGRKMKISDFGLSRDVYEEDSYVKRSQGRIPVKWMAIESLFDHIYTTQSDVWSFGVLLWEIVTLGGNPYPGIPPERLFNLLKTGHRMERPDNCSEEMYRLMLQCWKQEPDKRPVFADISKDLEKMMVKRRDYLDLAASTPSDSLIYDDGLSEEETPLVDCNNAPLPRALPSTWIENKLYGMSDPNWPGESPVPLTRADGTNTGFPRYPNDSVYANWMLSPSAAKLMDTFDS
As to the kind of experiment: HiBiT-Degradation, RET G810R degradation assay (Nano-Glo HiBiT Lytic), 293T.165 cells. It counts as cell-based. The following applies: for Emax / DC50: 6.0 hours; for Emax: % remaining protein, read-out: 293T.165 RET(KD: 658-1114 G810R) 6.0 hours (Emax); for DC50: read-out: 293T.165 RET(KD: 658-1114 G810R) 6.0 hours (DC50). The method in brief:
(§1)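 Degradation after 6 h compound exposure (top 10 μM, 11 half-log points, duplicates) measured by Nano-Glo HiBiT lytic luminescence. Cells: 293T.144 carrying wild-type and 293T.165 carrying G810R HiBiT-RET kinase domain; curves yield DC50 and Emax.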
Background: The HiBiT peptide binds its large partner to form an active luciferase.

Experiment [2] concerns the target T2, RET (658-1114) (Homo sapiens, UniProt P07949).
T2 construct: 658-1114; expressed in transfected cells; host or cells: 293T.144 (293T cells, generated in-house)
T2 sequence (P07949 658-1114): T1 sequence (P07949 658-1114 G810R) with R153G
As to the kind of experiment: HiBiT-Degradation, RET wild-type degradation assay (Nano-Glo HiBiT Lytic), 293T.144 cells. It counts as cell-based. Conditions: for Emax / DC50: 6.0 hours; for Emax: read-out: 293T.144 RET (658-1114) 6.0 hours (Emax); for DC50: read-out: 293T.144 RET (658-1114) 6.0 hours (DC50). The gist of the method: as §1

[3] abbreviates: half-maximal degradation concentration.

Numbering of substitutions follows the chain as printed. Where two headings read alike, the source gives them in different places.

For the compound `CCC1(C(=O)NC(C)C)CCN(c2ncc(-c3nc(-c4cnn(C5CCN(C(=O)CC6(O)CCN(c7ccc(NC8CCC(=O)NC8=O)cc7F)CC6)CC5)c4)cn4ncc(C#N)c34)cc2F)CC1` (stereo not shown) [Compound 119, 1-(5-(3-cyano-6-(1-(1-(2-(1-(4-((2,6-dioxopiperidin-3-yl)amino)-2-fluorophenyl)-4-hydroxypiperidin-4-yl)acetyl)piperidin-4-yl)-1H-pyrazol-4-yl)pyrazolo[1,5-a]pyrazin-4-yl)-3-fluoropyridin-2-yl)-4-ethyl-N-isopropylpiperidine-4-carboxamide], the “293T.165 RET(KD: 658-1114 G810R) 6.0 hours (IP) [nM]” value in experiment [1] was “++++ (<50 nM = ++++)”. Besides, the maximum response (Emax) in experiment [1] was less than 50%; in experiment [2] (% remaining protein) it was less than 30%. For the same compound, the results for the DC50 in experiment [1] (setting [3]) and in experiment [2] (setting [3]) were less than 100 nM and less than 50 nM, respectively. Besides, the “293T.144 RET (658-1114) 6.0 hours (IP) [nM]” value (from here on “293T.144 RET”) in experiment [2] is “++++ (<50 nM = ++++)”.
With `CCC1(C(=O)Nc2ccccc2)CCN(c2ccc(-c3nc(-c4cnn(C5CCN(C(=O)CC6(O)CCN(c7ccc(NC8CCC(=O)NC8=O)cc7F)CC6)CC5)c4)cn4ncc(C#N)c34)cn2)CC1` (stereo not shown) [Compound 99, 1-[5-[3-cyano-6-[1-[1-[2-[1-[4-[(2,6-dioxo-3-piperidyl)amino]-2-fluoro-phenyl]-4-hydroxy-4-piperidyl]acetyl]-4-piperidyl]pyrazol-4-yl]pyrazolo[1,5-a]pyrazin-4-yl]-2-pyridyl]-4-ethyl-N-phenyl-piperidine-4-carboxamide], the “293T.165 RET(KD: 658-1114 G810R) 6.0 hours (IP) [nM]” value in experiment [1] is listed as “++++ (<50 nM = ++++)”. The Emax in experiment [1] and in experiment [2] (% remaining protein) was less than 30% throughout. In addition, the DC50 in experiment [1] (setting [3]) and in experiment [2] (setting [3]) was less than 50 nM throughout. For the same compound, the “293T.144 RET” value in experiment [2] is “++++ (<50 nM = ++++)”.
Regarding `N#Cc1cnn2cc(-c3cnn([C@H]4CC[C@H](CCN5CCC(c6ccc(NC7CCC(=O)NC7=O)cc6F)CC5)CC4)c3)cc(-c3ccc(N4CCN(C(=O)Cc5ccc(F)cn5)CC4)nc3)c12` (stereo partly shown) [Compound 57, 6-[1-[(1r,4r)-4-[2-[4-[4-[(2,6-dioxo-3-piperidyl)amino]-2-fluoro-phenyl]-1-piperidyl]ethyl]cyclohexyl]pyrazol-4-yl]-4-[6-[4-[2-(5-fluoro-2-pyridyl)acetyl]piperazin-1-yl]-3-pyridyl]pyrazolo[1,5-a]pyridine-3-carbonitrile], in experiment [1], the Emax was less than 30%. In addition, the DC50 in experiment [1] (setting [3]) is less than 50 nM. In experiment [1] (HiBiT-Degradation), the “293T.165 RET(KD: 658-1114 G810R) 6.0 hours (Emax)” value was “++++ (< 30% = ++++)”, the “293T.165 RET(KD: 658-1114 G810R) 6.0 hours (IP) [nM]” value is “++++ (< 50 nM = ++++)” and the DC50 was less than 50 nM. In addition, in experiment [2] (HiBiT-Degradation), the “293T.144 RET” value was “++++ (< 50 nM = ++++)”, the DC50 was less than 50 nM and the Emax is less than 30%.
For the compound `N#Cc1cnn2cc(-c3cnn([C@H]4CC[C@H](N5CCC(c6ccc(NC7CCC(=O)NC7=O)cc6F)CC5)CC4)c3)nc(-c3ccc(N4CC5COCC(C4)N5Cc4ccccn4)nc3)c12` (single isomer, unassigned) [Compound 154, 6-[1-[4-[4-[4-[(2,6-dioxo-3-piperidyl)amino]-2-fluoro-phenyl]-1-piperidyl]cyclohexyl]pyrazol-4-yl]-4-[6-[9-(2-pyridylmethyl)-3-oxa-7,9-diazabicyclo[3.3.1]nonan-7-yl]-3-pyridyl]pyrazolo[1,5-a]pyrazine-3-carbonitrile], the “293T.165 RET(KD: 658-1114 G810R) 6.0 hours (IP) [nM]” value in experiment [1] is recorded as “++++ (<50 nM = ++++)”. Besides, the Emax in experiment [1] and in experiment [2] (% remaining protein) was less than 30% in each case. Further, the DC50 in experiment [1] (setting [3]) and in experiment [2] (setting [3]) was less than 50 nM throughout. Moreover, the “293T.144 RET” value in experiment [2] is “++++ (<50 nM = ++++)”.
Regarding `CCC1(C(=O)NC(C)(C)C)CCN(c2ccc(-c3nc(-c4cnn([C@H]5CC[C@H](N6CCC(c7ccc(N[C@@H]8CCC(=O)NC8=O)cc7F)CC6)CC5)c4)cn4ncc(C#N)c34)cn2)CC1` (single isomer, unassigned) [Compound 146], the “293T.165 RET(KD: 658-1114 G810R) 6.0 hours (IP) [nM]” value in experiment [1] is recorded as “++++ (<50 nM = ++++)”. Also, the Emax in experiment [1] and in experiment [2] (% remaining protein) was less than 30% in each case. For the same compound, the DC50 in experiment [1] (setting [3]) and in experiment [2] (setting [3]) was less than 50 nM in each case. The “293T.144 RET” value in experiment [2] is on record as “++++ (<50 nM = ++++)”.
Regarding `CCC1(C(=O)NC(C)C)CCN(c2ccc(-c3cc(-c4cnn([C@H]5CC[C@H](N6CCC(c7ccc(N[C@H]8CCC(=O)NC8=O)cc7F)CC6)CC5)c4)cn4ncc(C#N)c34)cn2)CC1` (single isomer, unassigned) [Compound 194], the “293T.165 RET(KD: 658-1114 G810R) 6.0 hours (IP) [nM]” value in experiment [1] is listed as “++++ (<50 nM = ++++)”. The Emax in experiment [1] and in experiment [2] (% remaining protein) was less than 30% each time. The DC50 in experiment [1] (setting [3]) and in experiment [2] (setting [3]) was less than 50 nM in each case. Further, the “293T.144 RET” value in experiment [2] is “++++ (<50 nM = ++++)”.
For the compound `CCC1(C(=O)NC2CCCC2)CCN(c2ccc(-c3nc(-c4cnn([C@H]5CC[C@H](N6CCC(c7ccc(N[C@H]8CCC(=O)NC8=O)cc7F)CC6)CC5)c4)cn4ncc(C#N)c34)cn2)CC1` [Compound 141, 1-[5-[3-cyano-6-[1-[4-[4-[4-[[(3S)-2,6-dioxo-3-piperidyl]amino]-2-fluoro-phenyl]-1-piperidyl]cyclohexyl]pyrazol-4-yl]pyrazolo[1,5-a]pyrazin-4-yl]-2-pyridyl]—N-cyclopentyl-4-ethyl-piperidine-4-carboxamide], the “293T.165 RET(KD: 658-1114 G810R) 6.0 hours (IP) [nM]” value in experiment [1] is “++++ (<50 nM = ++++)”. In addition, the Emax in experiment [1] and in experiment [2] (% remaining protein) was less than 30% throughout. For the same compound, the DC50 in experiment [1] (setting [3]) and in experiment [2] (setting [3]) was less than 50 nM throughout. For the same compound, the “293T.144 RET” value in experiment [2] is reported as “++++ (<50 nM = ++++)”.
For `N#Cc1cnn2cc(-c3cnn([C@H]4CC[C@@H](N5CCN(c6ccc(NC7CCC(=O)NC7=O)cc6F)CC5)CC4)c3)nc(-c3ccc(N4C[C@H]5COC[C@@H](C4)N5Cc4ccc(F)cn4)nc3)c12` (single isomer, unassigned) [Compound 151], the “293T.165 RET(KD: 658-1114 G810R) 6.0 hours (IP) [nM]” value in experiment [1] was “++++ (<50 nM = ++++)”. Also, the Emax in experiment [1] and in experiment [2] (% remaining protein) was less than 30% each time. For the same compound, the 50% degradation concentration (DC50) in experiment [1] (setting [3]) and in experiment [2] (setting [3]) was less than 50 nM each time. For the same compound, in experiment [2], the “293T.144 RET” value is on record as “++++ (<50 nM = ++++)”.
For the compound `N#Cc1cnn2cc(-c3cnn(C4CCN(C(=O)CN5CCC(c6ccc(NC7CCC(=O)NC7=O)cc6F)CC5)CC4)c3)cc(-c3ccc(N4CCN(C(=O)Cc5ccc(F)cn5)CC4)nc3)c12` (stereo not shown) [Compound 5, 6-[1-[1-[2-[4-[4-[(2,6-dioxo-3-piperidyl)amino]-2-fluoro-phenyl]-1-piperidyl]acetyl]-4-piperidyl]pyrazol-4-yl]-4-[6-[4-[2-(5-fluoro-2-pyridyl)acetyl]piperazin-1-yl]-3-pyridyl]pyrazolo[1,5-a]pyridine-3-carbonitrile], in experiment [1], the Emax is less than 30%. For the same compound, in experiment [1] (setting [3]), the 50% degradation concentration (DC50) was less than 50 nM. For the same compound, in experiment [1] (HiBiT-Degradation), the “293T.165 RET(KD: 658-1114 G810R) 6.0 hours (Emax)” value is “++++ (< 30% = ++++)”, the “293T.165 RET(KD: 658-1114 G810R) 6.0 hours (IP) [nM]” value was “++++ (< 50 nM = ++++)” and the DC50 was less than 50 nM. For the same compound, in experiment [2] (HiBiT-Degradation), the “293T.144 RET” value is listed as “++++ (< 50 nM = ++++)”, the DC50 is less than 50 nM and the maximum response (Emax) is less than 30%.
With `CCC1(C(=O)NC2CCC2)CCN(c2ccc(-c3nc(-c4cnn([C@H]5CC[C@H](N6CCC(c7ccc(N[C@@H]8CCC(=O)NC8=O)cc7)CC6)CC5)c4)cn4ncc(C#N)c34)cn2)CC1` (single isomer, unassigned) [Compound 128], in experiment [1], the “293T.165 RET(KD: 658-1114 G810R) 6.0 hours (IP) [nM]” value is recorded as “++++ (<50 nM = ++++)”. Further, the Emax in experiment [1] and in experiment [2] (% remaining protein) was less than 30% throughout. Moreover, the DC50 in experiment [1] (setting [3]) and in experiment [2] (setting [3]) was less than 50 nM each time. Further, the “293T.144 RET” value in experiment [2] is recorded as “++++ (<50 nM = ++++)”.

What is called Emax is the greatest response seen or fitted, relative to the assay's reference. The term DC50 denotes the concentration giving 50% degradation.

For the origin of these results see patent US12661410B2, “Compounds for targeted degradation of RET” (C4 Therapeutics, Inc., priority 2020, dated 2026).
